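These data come from cells grown in 96-well plates and exposed to compound for 48 hours at five concentrations. Definition used: TGI = concentration required for complete inhibition of growth.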
What was measured:
Experiment in all cases: DTP human tumour cell line panel, 48 h
RPMI-8226 leukemia = tested on: RPMI-8226 leukemia
A498 renal = tested on: A498 renal
NCI/ADR-RES ovarian = tested on: NCI/ADR-RES ovarian
MOLT-4 leukemia = tested on: MOLT-4 leukemia
OVCAR-3 ovarian = tested on: OVCAR-3 ovarian
SR leukemia = tested on: SR leukemia
HT29 colon = tested on: HT29 colon
HS 578T breast = tested on: HS 578T breast
COLO 205 colon = tested on: COLO 205 colon
RXF 393 renal = tested on: RXF 393 renal
SNB-19 CNS = tested on: SNB-19 CNS
LOX IMVI melanoma = tested on: LOX IMVI melanoma
MCF7 breast = tested on: MCF7 breast
MDA-MB-231 breast = tested on: MDA-MB-231 breast
PC-3 prostate = tested on: PC-3 prostate
MDA-MB-435 = tested on: MDA-MB-435
M14 melanoma = tested on: M14 melanoma
NCI-H460 lung = tested on: NCI-H460 lung
SF-539 CNS = tested on: SF-539 CNS
SF-295 CNS = tested on: SF-295 CNS
A549 NSCLC = tested on: A549 NSCLC
SNB-75 CNS = tested on: SNB-75 CNS
CCRF-CEM leukemia = tested on: CCRF-CEM leukemia
HOP-92 NSCLC = tested on: HOP-92 NSCLC
SK-OV-3 ovarian = tested on: SK-OV-3 ovarian
786-0 renal = tested on: 786-0 renal
UO-31 renal = tested on: UO-31 renal
TK-10 renal = tested on: TK-10 renal
HOP-62 NSCLC = tested on: HOP-62 NSCLC
K-562 leukemia = tested on: K-562 leukemia
SF-268 CNS = tested on: SF-268 CNS
UACC-62 melanoma = tested on: UACC-62 melanoma
NCI-H23 lung = tested on: NCI-H23 lung
MALME-3M melanoma = tested on: MALME-3M melanoma
DU-145 prostate = tested on: DU-145 prostate
NCI-H522 lung = tested on: NCI-H522 lung
ACHN renal = tested on: ACHN renal
HCT-15 colon = tested on: HCT-15 colon
U251 CNS = tested on: U251 CNS
SK-MEL-5 melanoma = tested on: SK-MEL-5 melanoma
SN12C renal = tested on: SN12C renal
BT-549 breast = tested on: BT-549 breast
IGROV1 ovarian = tested on: IGROV1 ovarian
HCC-2998 colon = tested on: HCC-2998 colon
SK-MEL-28 melanoma = tested on: SK-MEL-28 melanoma
T-47D breast = tested on: T-47D breast
SW-620 colon = tested on: SW-620 colon
MDA-N = tested on: MDA-N
NCI-H226 lung = tested on: NCI-H226 lung
HCT-116 colon = tested on: HCT-116 colon
UACC-257 melanoma = tested on: UACC-257 melanoma
CAKI-1 renal = tested on: CAKI-1 renal
KM12 colon = tested on: KM12 colon
SK-MEL-2 melanoma = tested on: SK-MEL-2 melanoma
HL-60(TB) leukemia = tested on: HL-60(TB) leukemia
OVCAR-8 ovarian = tested on: OVCAR-8 ovarian

Q: With `CN(C)Cc1cc(N=Nc2ccc(Cl)cc2)cc(CN(C)C)c1O` as the compound, how does the TGI (RPMI-8226 leukemia) read?
A: 37 µM

Q: And the TGI (A498 renal)?
A: 29.8 µM

Q: And the TGI (NCI/ADR-RES ovarian)?
A: 13.6 µM

Q: What about the TGI (MOLT-4 leukemia) of the same compound?
A: 10.7 µM

Q: And the TGI (OVCAR-3 ovarian)?
A: 6.78 µM

Q: And the TGI (SR leukemia)?
A: 22.8 µM

Q: What about the TGI (HT29 colon) of the same compound?
A: 19 µM

Q: What about the TGI (HS 578T breast) of the same compound?
A: 27.7 µM

Q: What about the TGI (COLO 205 colon) of the same compound?
A: 13.4 µM

Q: What about the TGI (RXF 393 renal) of the same compound?
A: 25.1 µM

Q: What about the TGI (SNB-19 CNS) of the same compound?
A: 25.5 µM

Q: And the TGI (LOX IMVI melanoma)?
A: 16.1 µM

Q: And the TGI (MCF7 breast)?
A: 21.3 µM

Q: What about the TGI (MDA-MB-231 breast) of the same compound?
A: 20.9 µM

Q: What about the TGI (PC-3 prostate) of the same compound?
A: 18.8 µM

Q: And the TGI (MDA-MB-435)?
A: 24.6 µM

Q: And the TGI (M14 melanoma)?
A: 37.6 µM

Q: And the TGI (NCI-H460 lung)?
A: 18.1 µM

Q: And the TGI (SF-539 CNS)?
A: 23.2 µM

Q: What about the TGI (SF-295 CNS) of the same compound?
A: 24.7 µM

Q: What about the TGI (A549 NSCLC) of the same compound?
A: 21.3 µM

Q: And the TGI (SNB-75 CNS)?
A: 25.8 µM

Q: And the TGI (CCRF-CEM leukemia)?
A: 7 µM

Q: What about the TGI (HOP-92 NSCLC) of the same compound?
A: 21.7 µM

Q: What about the TGI (SK-OV-3 ovarian) of the same compound?
A: 33.3 µM

Q: And the TGI (786-0 renal)?
A: 17.9 µM

Q: And the TGI (UO-31 renal)?
A: 7.23 µM

Q: What about the TGI (TK-10 renal) of the same compound?
A: 21.3 µM

Q: And the TGI (HOP-62 NSCLC)?
A: 14.6 µM

Q: What about the TGI (K-562 leukemia) of the same compound?
A: 6.75 µM

Q: And the TGI (SF-268 CNS)?
A: 30.3 µM

Q: What about the TGI (UACC-62 melanoma) of the same compound?
A: 30.2 µM

Q: And the TGI (NCI-H23 lung)?
A: 40.7 µM

Q: And the TGI (MALME-3M melanoma)?
A: 28.6 µM

Q: What about the TGI (DU-145 prostate) of the same compound?
A: 35.4 µM

Q: And the TGI (NCI-H522 lung)?
A: 5.97 µM

Q: And the TGI (ACHN renal)?
A: 19 µM

Q: What about the TGI (HCT-15 colon) of the same compound?
A: 21 µM

Q: What about the TGI (U251 CNS) of the same compound?
A: 19.8 µM

Q: And the TGI (SK-MEL-5 melanoma)?
A: 21.1 µM

Q: And the TGI (SN12C renal)?
A: 23.8 µM

Q: What about the TGI (BT-549 breast) of the same compound?
A: 23.8 µM

Q: What about the TGI (IGROV1 ovarian) of the same compound?
A: 12 µM

Q: And the TGI (HCC-2998 colon)?
A: 23.6 µM

Q: And the TGI (SK-MEL-28 melanoma)?
A: 23.9 µM

Q: What about the TGI (T-47D breast) of the same compound?
A: 33.6 µM

Q: What about the TGI (SW-620 colon) of the same compound?
A: 21.1 µM

Q: And the TGI (MDA-N)?
A: 29.2 µM

Q: What about the TGI (NCI-H226 lung) of the same compound?
A: 17.7 µM

Q: And the TGI (HCT-116 colon)?
A: 17.5 µM

Q: And the TGI (UACC-257 melanoma)?
A: 31.5 µM

Q: And the TGI (CAKI-1 renal)?
A: 26.8 µM

Q: And the TGI (KM12 colon)?
A: 20.7 µM

Q: And the TGI (SK-MEL-2 melanoma)?
A: 27.8 µM

Q: And the TGI (HL-60(TB) leukemia)?
A: 4.94 µM

Q: What about the TGI (OVCAR-8 ovarian) of the same compound?
A: 12.7 µM

— PubChem BioAssay (NCI)
